Common to all, as to assay type: protein assay
Design in all cases: concentration or dose not given beside the values

The target in assay [1] is T1, Protein cereblon/Bromodomain-containing protein 4 (Homo sapiens) (UniProt O60885+Q96SW2). The assay can be described thus: PROTAC activity at CRBN/BRD4 (unknown origin) assessed as BRD4 degradation in presence of (1S,4R,5R,6S)-N-((2-(2,6-dioxopiperidin-3-yl)-1,3-dioxoisoindolin-4-yl)methyl)-5,6- dihydroxy bicyclo[2.2.1]heptane-2-carboxamide (CRB-N8066) by Western blot analysis.
T1 sequence (Q96SW2 whole entry, looked up, other chains not shown): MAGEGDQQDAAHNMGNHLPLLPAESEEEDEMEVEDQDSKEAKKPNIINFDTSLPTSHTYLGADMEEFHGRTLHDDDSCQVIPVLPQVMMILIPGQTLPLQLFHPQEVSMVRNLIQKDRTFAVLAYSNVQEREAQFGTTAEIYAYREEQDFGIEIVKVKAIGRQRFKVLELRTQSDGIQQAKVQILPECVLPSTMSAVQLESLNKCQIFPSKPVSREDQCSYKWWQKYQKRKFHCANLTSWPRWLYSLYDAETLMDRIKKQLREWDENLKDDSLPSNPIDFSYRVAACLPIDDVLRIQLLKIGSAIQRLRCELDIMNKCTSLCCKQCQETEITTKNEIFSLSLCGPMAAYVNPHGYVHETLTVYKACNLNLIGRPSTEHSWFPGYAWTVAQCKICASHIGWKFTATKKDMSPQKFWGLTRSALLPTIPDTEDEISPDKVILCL

In assay [2] the target is T1, Protein cereblon/Bromodomain-containing protein 4 (Homo sapiens). The assay can be described thus: PROTAC activity at CRBN/BRD4 (unknown origin) assessed as BRD4 degradation in presence of N-((2-(2,6-dioxopiperidin-3-yl)-1,3-dioxoisoindolin-4-yl)methyl)-2,3- dihydroxy benzamide (CRB-N8047) by Western blot analysis.
Assay [3] has the same target. The assay is described as follows: PROTAC activity at CRBN/BRD4 (unknown origin) assessed as BRD4 degradation in presence of N-((2-(2,6-dioxopiperidin-3-yl)-1,3-dioxoisoindolin-4-yl)methyl)-3,4- dihydroxy benzamide (CRB-N8046) by Western blot analysis.

SMILES strings stand for the structures.

`COc1ccc2c(c1)C(c1ccc(Cl)cc1)=N[C@@H](CC(=O)NCCCCCNC(=O)c1ccc(B(O)O)cc1)c1nnc(C)n1-2`: the Activity in assay [1] was determined as 30%.
Consider `COc1ccc2c(c1)C(c1ccc(Cl)cc1)=N[C@@H](CC(=O)NCc1ccc(B(O)O)cc1)c1nnc(C)n1-2`, for which, in assay [2], the Activity was 30%.
Consider `COc1ccc2c(c1)C(c1ccc(Cl)cc1)=N[C@@H](CC(=O)NCCCNC(=O)c1cccc(B(O)O)c1)c1nnc(C)n1-2`, for which the Activity in assay [2], in assay [3] and in assay [1] was 30% throughout.
With `COc1ccc2c(c1)C(c1ccc(Cl)cc1)=N[C@@H](CC(=O)NCCc1ccc(B(O)O)cc1)c1nnc(C)n1-2`, the Activity in assay [2] was determined as 30%.
Consider `COc1ccc2c(c1)C(c1ccc(Cl)cc1)=N[C@@H](CC(=O)NCCCCNC(=O)c1ccc(B(O)O)cc1)c1nnc(C)n1-2`, for which the Activity in assay [2] and in assay [1] was 30% throughout.
For `COc1ccc2c(c1)C(c1ccc(Cl)cc1)=N[C@@H](CC(=O)NCCCCCNC(=O)c1cccc(B(O)O)c1)c1nnc(C)n1-2`, the Activity in assay [3] and in assay [1] was 30% in each case.
Regarding `CCNC(=O)C[C@@H]1N=C(c2ccc(Cl)cc2)c2cc(OCCCCC(=O)Nc3cccc(B(O)O)c3)ccc2-n2c(C)nnc21`, the Activity in assay [3] and in assay [1] was 30% each time.
As to `COc1ccc2c(c1)C(c1ccc(Cl)cc1)=N[C@@H](CC(=O)NCCNC(=O)/C=C/c1ccc(B(O)O)cc1)c1nnc(C)n1-2`, the Activity in assay [2], in assay [3] and in assay [1] was 30% each time.
Take `COc1ccc2c(c1)C(c1ccc(Cl)cc1)=N[C@@H](CC(=O)NCCNC(=O)/C=C/c1cccc(B(O)O)c1)c1nnc(C)n1-2`: the Activity in assay [2] and in assay [1] was 30% each time.
`COc1ccc2c(c1)C(c1ccc(Cl)cc1)=N[C@@H](CC(=O)NCc1cccc(B(O)O)c1)c1nnc(C)n1-2`: the Activity in assay [2] and in assay [3] was 30% each time.

Source of the values: ChEMBL document CHEMBL5126616, “Therapeutic and Effective CURE-PRO Molecules for E3 Ligase-Mediated Targeted Protein Degradation” (ACS Med Chem Lett, 2022).
